Series [1] is described as follows: Further set: percent hydrolysis by 5'-nucleotidase (Table 1B). In kind it is in vitro ADME, Crotalus atrox. Particulars: rattlesnake, 20 minutes incubation, 200 μl. As for the experimental part:
Nucleotide samples (40-60 nmoles) were incubated at 37° C. for 10 minutes with 0.02 units 5'-nucleotidase in a total volume of 100 μl containing […] HEPES, pH 7.3 and […] MgCl2. […] Phosphate was determined by the absorbance of 820 nm. Blanks consisting of nucleotide but no enzyme were tested in parallel to correct for non-enzymatic hydrolysis.
The protocol was as hereinabove except that the first incubation was for 20 minutes in a total volume of 200 μl, 0.1 mM HEPES and 10 mM MgCl2. The percent hydrolysis of nucleotides was performed in duplicate for each assay.

The subject of series [2] is human peripheral blood lymphocytes (HPBL). The series can be described thus: Response of normal HPBL to PHA (tritiated thymidine incorporation). In kind it is cell-based. Particulars: 0.1-100 μg/ml; FIG. 1. As for the experimental part: In vitro: Both human peripheral blood lymphocytes (HPBL) and mouse spleen lymphocytes (MSL) were employed. […] For HPBL transformation, PHA and PWM were used at 0.5 μg/ml. For MSL transformation, Con A was used at 0.5 μg/ml, phytohemagglutinin (PHA, Murex Diagnostics, Atlanta, Ga.) at 0.5 μg/ml and lipopolysaccharide endotoxin (LPS, Sigma, St. Louis, Mo.) at 10 μg/ml.
(§1) They were cultured in microwell plates at 1.5×10^6 cells/ml of minimal essential media (MEM, Gibco Labs, Grand Island, N.Y.) with 5% fetal calf serum (FCS, Hyclone Labs, Logan, Utah) and tested for their proliferative response to mitogens as measured by incorporation of (^3 H) tritiated thymidine (New England Nuclear, Wilmington Del., […]; 2.5 μCi/ml) during a terminal pulse followed by liquid scintillation spectrometry.
(Dividing cells build labelled thymidine or BrdU into new DNA.)

Series [3] has the same test system. The series can be described thus: Response of normal HPBL to PWM. As to conditions: PWM 0.5 μg/ml. In kind it is cell-based. On the procedure:
In vitro: Both human peripheral blood lymphocytes (HPBL) and mouse spleen lymphocytes (MSL) were employed. Proliferation was assayed by tritiated thymidine incorporation, as described in Hadden et al. (1975) and Hadden et al. (1986). For HPBL transformation, PHA and PWM were used at 0.5 μg/ml. For MSL transformation, Con A was used at 0.5 μg/ml, phytohemagglutinin (PHA, Murex Diagnostics, Atlanta, Ga.) at 0.5 μg/ml and lipopolysaccharide endotoxin (LPS, Sigma, St. Louis, Mo.) at 10 μg/ml. When protected-IMP derivatives were added, they were added at the onset of culture at varying concentrations ranging from 0.1 μg/ml to 100 μg/ml.
as §1, with “Murine splenocytes were obtained from BALB/c mice, 4-12 months old, by standard procedures (Hadden et al., 1975). They” for “They”, “spectrometry. Human cells were seeded at […] and cultured for 48 hours with an 18 hour pulse with ^3 H-thymidine.” for “spectrometry.”
Normal human peripheral blood lymphocytes (HPBL) were stimulated with the mitogenic agents PHA or PWM. […]

The test system of a further series is CD4+ lymphocytes. Description: PHA response of CD4+ enriched human lymphocytes. In kind it is cell-based. As to conditions: MIMP 1-200 μg/ml, 3 donors, p <0.01. The source says:
Human CD4+ and CD8+ lymphocyte subsets were obtained from normal controls using commercial panning techniques (Applied Immune Sciences, Santa Clara, Calif.).
Human peripheral blood lymphocytes are on average approximately 80% T lymphocytes and 20% B lymphocytes and of the T lymphocytes, 2/3 are of the CD4+ helper/inducer phenotype and 1/3 are the CD8+ suppressor/cytotoxic phenotype. Enrichment of CD4+ T cells or CD8+ T cells can be achieved through reduction of the other phenotype (>98%) removal using adherence to monoclonal antibody-coated flasks (panning).

Series [4] has as its system Salm. typhimurium strain 415. Description: Salmonella infection mortality. In kind it is in vivo, BALB/c mice. As to conditions: the various treatments of MIMP; p<0.01; control about 2.5 days.
In the next series the test system is influenza virus. In kind it is in vivo, NMRI mice. As to conditions: for % mortality: Table 7, 200 μg, i.n.
Another series deals with anti-HBs. Description: Anti-HBs production in normal DBA/2 mice (EIA). In kind it is in vivo. Particulars: for anti-HBs, Day 14 / anti-HBs, Day 21: 50 mg/kg. The source says:
Different strains of mice, coded by Pre-S2 zone S-gene HBV for their immune responses for proteins place them in the following haplotype order (Benaceraf and McDevitt, 1972): H-2^b >H-2^d >H-2^s >H-2^k>H-2^f. […] Therefore, male DBA/2 mice weighing 16-18 grams were obtained from the Animal Laboratory, Academy of Medical Science, Russia, and were used in the examples set forth herein. This line of mice was chosen as they are poor responders to hepatitis B vaccine.
Serum specimens from immunized mice were tested for the presence of anti-HBs in an enzyme immunoassay (EIA) using the diagnostic kits of Roche Diagnostica as per the manufacturer's instructions. The anti-HBs EIA kit (Roche), has a sensitivity of <10 IU/1.
Antibody concentration was determined with the help of calibration curves designed on the basis of the results of anti-HBs detection in standard serum panel (Roche Diagnostica) with the concentrations, as follows: 10 IU/l; 50 IU/l; 100 IU/l and 150 IU/l. The results of the two experiments were used for the calculation of mean values.
HBsAg was administered at a dose of […] in 0.2 ml PBS (pH 7.4) twice with an interval of two weeks between injections.
A protected-IMP, MIMP, was introduced both orally or intraperitoneally at a dose of 50 mg/kg.
The results of anti-HBs detection in the control group of mice treated with HBsAg alone and in the groups treated with the combination of HBsAg and MIMP, as prepared in the examples, are presented in Table 9. The various vaccination schedules are provided in the following list.

Another series deals with IL-2. The series can be described thus: PHA-induced IL-2 production. As to conditions: preliminary data. In kind it is cell-based.
The test system of another series is IL-10. The series can be described thus: PHA-induced IL-10 production. As to conditions: preliminary data. In kind it is cell-based.
The mark [5] stands for this setting: scheme 3: HBsAg + MIMP i.p. simultaneously then MIMP per os, p < 0.01.

Where two headings read alike, the source gives them in different places.

In the case of `COP(=O)(O)OC[C@H]1O[C@@H](n2cnc3c(=O)[nH]cnc32)[C@H](O)[C@@H]1O` [Me-IMP, Methyl-5'-inosine-monophosphate], the metabolised at 20 min in series [1] (read-out: Percent hydrolysis by 5'-nucleotidase, Assay 1) stood at 1.5%; in [1] (read-out: Percent hydrolysis by 5'-nucleotidase, Assay 2), 2.2%; in [1] (read-out: Percent hydrolysis by 5'-nucleotidase, Assay 3), 2.6%. Also, the “relative activity on HPBL response to PHA” value in [2] is recorded as “more active”. Besides, the “effect on PWM response of HPBL” value in [3] is on record as “not affected”. Besides, the “PHA response of CD4+ lymphocytes” value with CD4+ lymphocytes was “significantly augmented”. The MST result in [4] is given as “about four”. For the same molecule, the “% mortality” value in the series with influenza virus (-1 h) was 80%; in the series on influenza virus (-1 d) it was 60%. For the same molecule, the “number of survivors and mean survival time (MST)” value in the series on influenza virus (mouse, in vivo) is “increased the number of survivors and mean survival time”. In addition, the “survival and MST” value with influenza virus (mouse, in vivo) was “increased survival and MST”. In addition, the “anti-HBs, Day 14” value is under 10 IU/1 in the series with anti-HBs (scheme 2: HBsAg + MIMP per os 30 minutes prior to vaccine); 100 IU/1 in the series on anti-HBs (setting [5]); 100 IU/1 in the series with anti-HBs (scheme 4: HBsAg + MIMP i.p. simultaneously, p < 0.01). In addition, the “anti-HBs, Day 21” value is 370 IU/1 with anti-HBs (scheme 2: HBsAg + MIMP per os 30 minutes prior to vaccine, 0.01 < p < 0.05); 610 IU/1 in the series with anti-HBs (setting [5]); 420 IU/1 with anti-HBs (scheme 4: HBsAg + MIMP i.p. simultaneously, 0.01 < p < 0.05). Besides, in the series on anti-HBs (single intraperitoneal or single oral dose of 50 mg/kg), the “level of antibodies to HBsAg” value is listed as “significant increase”. Further, the “effect on PHA-induced IL-2” value in the series on IL-2 was “only a small effect”. Moreover, the “effect on IL-10 production” value with IL-10 is listed as “potently inhibits”.

Source of the values: patent US5614504A, “Method of making inosine monophosphate derivatives and immunopotentiating uses thereof” (The University of South Florida, priority 1995, dated 1997).
